Laboratory results taken from ChEMBL document CHEMBL4334526, “Synthesis of Peptoid-Based Class I-Selective Histone Deacetylase Inhibitors with Chemosensitizing Properties” (J Med Chem, 2019).
Each block holds one compound with its values, some of them ahead of it. Active and inactive are the calls of the source. No cut-off for these calls is given here.

Experiments:
[1] = target: T1, Class 1 histone deacetylase (Homo sapiens, UniProt Q13547+O15379+Q92769+Q9BY41); assay: Inhibition of class 1 HDAC in human Cal27CisR cells assessed as potentiation of cisplatin-induced cytotoxicity by measuring combination index at 5 uM in presence of 10 uM cisplatin by MTT assay based Chou-Talalay analysis; assay type: cell-based
T1 sequence (O15379 whole entry, looked up): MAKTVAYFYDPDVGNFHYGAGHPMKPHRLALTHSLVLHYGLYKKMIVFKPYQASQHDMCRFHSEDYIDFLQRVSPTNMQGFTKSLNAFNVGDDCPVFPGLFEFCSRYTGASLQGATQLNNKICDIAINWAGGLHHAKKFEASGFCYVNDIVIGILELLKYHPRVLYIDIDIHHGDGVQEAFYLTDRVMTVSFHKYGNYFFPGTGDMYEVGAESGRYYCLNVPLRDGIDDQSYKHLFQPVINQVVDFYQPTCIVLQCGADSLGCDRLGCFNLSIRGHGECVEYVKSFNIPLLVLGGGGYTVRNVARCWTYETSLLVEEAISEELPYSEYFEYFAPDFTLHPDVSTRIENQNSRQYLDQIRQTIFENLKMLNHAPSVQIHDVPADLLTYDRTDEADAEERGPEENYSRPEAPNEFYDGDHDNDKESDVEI
T1 sequence (Q13547 whole entry, looked up): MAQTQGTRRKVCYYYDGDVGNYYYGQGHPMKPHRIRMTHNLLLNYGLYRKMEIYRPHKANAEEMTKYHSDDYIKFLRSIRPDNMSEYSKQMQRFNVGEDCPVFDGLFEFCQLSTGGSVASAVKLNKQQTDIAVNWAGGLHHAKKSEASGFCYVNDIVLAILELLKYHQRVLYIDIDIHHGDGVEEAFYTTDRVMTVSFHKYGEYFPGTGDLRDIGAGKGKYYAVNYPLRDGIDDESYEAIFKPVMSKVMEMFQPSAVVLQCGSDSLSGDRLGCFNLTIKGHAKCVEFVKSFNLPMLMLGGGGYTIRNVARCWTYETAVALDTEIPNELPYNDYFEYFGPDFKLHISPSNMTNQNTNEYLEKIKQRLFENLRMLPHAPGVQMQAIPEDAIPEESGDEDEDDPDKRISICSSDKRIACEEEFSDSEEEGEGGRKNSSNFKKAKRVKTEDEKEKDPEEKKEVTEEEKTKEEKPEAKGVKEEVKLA
T1 sequence (Q92769 whole entry, looked up): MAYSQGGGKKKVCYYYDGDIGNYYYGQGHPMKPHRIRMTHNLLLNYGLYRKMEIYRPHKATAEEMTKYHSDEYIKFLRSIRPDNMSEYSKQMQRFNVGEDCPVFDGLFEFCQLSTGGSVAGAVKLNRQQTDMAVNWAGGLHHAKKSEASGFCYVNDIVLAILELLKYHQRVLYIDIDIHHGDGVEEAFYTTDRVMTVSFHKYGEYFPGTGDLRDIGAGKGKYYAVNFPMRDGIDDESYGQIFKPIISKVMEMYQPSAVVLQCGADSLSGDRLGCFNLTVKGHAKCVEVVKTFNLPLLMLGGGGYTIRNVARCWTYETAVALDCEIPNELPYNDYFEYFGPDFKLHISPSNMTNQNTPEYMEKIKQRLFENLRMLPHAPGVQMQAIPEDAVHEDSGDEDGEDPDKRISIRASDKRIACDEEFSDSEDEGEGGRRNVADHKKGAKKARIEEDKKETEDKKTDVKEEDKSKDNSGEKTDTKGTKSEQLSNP
T1 sequence (Q9BY41 whole entry, looked up): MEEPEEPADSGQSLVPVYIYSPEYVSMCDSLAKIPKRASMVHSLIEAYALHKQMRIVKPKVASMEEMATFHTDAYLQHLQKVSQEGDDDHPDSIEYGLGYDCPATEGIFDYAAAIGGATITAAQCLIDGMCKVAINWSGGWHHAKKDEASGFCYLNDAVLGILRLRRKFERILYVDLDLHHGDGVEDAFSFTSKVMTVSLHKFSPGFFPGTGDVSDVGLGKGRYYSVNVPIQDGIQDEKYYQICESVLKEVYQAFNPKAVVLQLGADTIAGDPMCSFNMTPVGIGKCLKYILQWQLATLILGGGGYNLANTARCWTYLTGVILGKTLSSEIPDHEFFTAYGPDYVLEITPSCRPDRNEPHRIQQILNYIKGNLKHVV

[2] = target: T1, Class 1 histone deacetylase; assay: Inhibition of class 1 HDAC in human Cal27CisR cells assessed as potentiation of cisplatin-induced cytotoxicity by measuring combination index at 5 uM in presence of 32 uM cisplatin by MTT assay based Chou-Talalay analysis; assay type: cell-based
[3] = target: T1, Class 1 histone deacetylase; assay: Inhibition of class 1 HDAC in human Cal27CisR cells assessed as potentiation of cisplatin-induced cytotoxicity by measuring combination index at 5 uM in presence of 100 uM cisplatin by MTT assay based Chou-Talalay analysis; assay type: cell-based
[4] = target: T1, Class 1 histone deacetylase; assay: Inhibition of class 1 HDAC in human CAL27 cells assessed as potentiation of cisplatin-induced apoptosis by measuring increase in accumulation at sub-G1 phase at 5 uM preincubated for 48 hrs followed by cisplatin addition and measured after 24 hrs by propidium iodide staining based flow cytometry; assay type: cell-based; details: CAL-27
[5] = target: T2, Protein deacetylase HDAC6 (Homo sapiens) (UniProt Q9UBN7); assay: Inhibition of HDAC6 in human CAL27 cells assessed as acetylation of alpha-tubulin at 5 uM measured after 24 hrs by immunoblot analysis; assay type: cell-based
T2 sequence (whole entry): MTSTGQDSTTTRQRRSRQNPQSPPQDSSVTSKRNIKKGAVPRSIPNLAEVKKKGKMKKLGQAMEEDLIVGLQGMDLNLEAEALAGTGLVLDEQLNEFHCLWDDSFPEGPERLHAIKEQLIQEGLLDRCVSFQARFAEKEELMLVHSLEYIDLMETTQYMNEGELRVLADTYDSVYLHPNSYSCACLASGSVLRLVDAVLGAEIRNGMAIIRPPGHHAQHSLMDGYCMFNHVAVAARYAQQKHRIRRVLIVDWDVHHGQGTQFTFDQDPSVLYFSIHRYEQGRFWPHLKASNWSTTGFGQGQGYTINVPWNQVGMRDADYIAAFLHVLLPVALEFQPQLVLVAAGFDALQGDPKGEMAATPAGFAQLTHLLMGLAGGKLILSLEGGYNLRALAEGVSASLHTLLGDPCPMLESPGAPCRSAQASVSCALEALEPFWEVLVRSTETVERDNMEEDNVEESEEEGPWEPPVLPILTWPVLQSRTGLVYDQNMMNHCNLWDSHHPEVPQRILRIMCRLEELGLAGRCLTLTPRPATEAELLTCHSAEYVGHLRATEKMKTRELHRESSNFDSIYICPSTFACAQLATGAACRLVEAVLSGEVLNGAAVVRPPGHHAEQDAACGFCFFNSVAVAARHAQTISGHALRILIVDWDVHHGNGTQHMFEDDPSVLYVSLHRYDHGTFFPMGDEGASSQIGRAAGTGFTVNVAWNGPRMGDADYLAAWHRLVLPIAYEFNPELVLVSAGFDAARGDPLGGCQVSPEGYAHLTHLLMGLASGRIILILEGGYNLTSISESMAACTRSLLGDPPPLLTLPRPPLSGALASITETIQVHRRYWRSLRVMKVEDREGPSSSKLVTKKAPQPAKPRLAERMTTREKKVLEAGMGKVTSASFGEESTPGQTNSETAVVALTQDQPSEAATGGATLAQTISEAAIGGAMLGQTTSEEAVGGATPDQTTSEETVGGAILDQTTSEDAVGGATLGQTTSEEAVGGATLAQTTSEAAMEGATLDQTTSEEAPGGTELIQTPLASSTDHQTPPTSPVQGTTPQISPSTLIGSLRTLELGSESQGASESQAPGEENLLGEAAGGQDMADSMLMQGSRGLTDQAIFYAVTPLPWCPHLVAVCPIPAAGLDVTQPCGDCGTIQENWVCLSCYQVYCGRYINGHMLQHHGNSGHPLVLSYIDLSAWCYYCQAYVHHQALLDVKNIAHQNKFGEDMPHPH

[6] = target: T2, Protein deacetylase HDAC6 (Homo sapiens); assay: Inhibition of HDAC6 in human Cal27CisR cells assessed as acetylation of alpha-tubulin at 5 uM measured after 24 hrs by immunoblot analysis; assay type: cell-based
CAL-27 [7] = assay: Potency index, ratio of vorinostat IC50 to test compound IC50 for cytotoxicity against human CAL27 cells; assay type: functional
[8] = Induction of apoptosis in human Cal27CisR cells assessed as accumulation at sub-G1 phase at 0.5 uM after 48 hrs by propidium iodide staining based flow cytometry relative to control; assay type: functional
[9] = Induction of apoptosis in human Cal27CisR cells assessed as accumulation at sub-G1 phase at 100 uM measured after 48 hrs by propidium iodide staining based flow cytometry relative to control; assay type: functional
[10] = target: T1, Class 1 histone deacetylase; assay type: cell-based; details: cal-27
[11] = target: T1, Class 1 histone deacetylase; details: CAL-27
Description: Inhibition of class 1 HDAC in human CAL27 cells assessed as potentiation of cisplatin-induced cytotoxicity by measuring combination index at 0.1 uM in presence of 10 uM cisplatin by MTT assay based Chou-Talalay analysis

[12] = target: T1, Class 1 histone deacetylase; details: CAL-27; remark: listed apart in the source
Description: Inhibition of class 1 HDAC in human CAL27 cells assessed as potentiation of cisplatin-induced cytotoxicity by measuring combination index at 0.1 uM in presence of 1 uM cisplatin by MTT assay based Chou-Talalay analysis

[13] = target: T1, Class 1 histone deacetylase
Description: Inhibition of class 1 HDAC in human Cal27CisR cells assessed as potentiation of cisplatin-induced cytotoxicity by measuring combination index at 0.10 uM in presence of 3.2 uM cisplatin by MTT assay based Chou-Talalay analysis

[14] = target: T1, Class 1 histone deacetylase; remark: listed apart in the source
Description: Inhibition of class 1 HDAC in human Cal27CisR cells assessed as potentiation of cisplatin-induced cytotoxicity by measuring combination index at 0.25 uM in presence of 3.2 uM cisplatin by MTT assay based Chou-Talalay analysis

[15] = target: T1, Class 1 histone deacetylase; assay: Inhibition of class 1 HDAC in human CAL27 cells assessed as potentiation of cisplatin-induced cytotoxicity by measuring fold reduction in cisplatin IC50 at […] preincubated for 48 hrs followed by cisplatin addition and measured after 72 hrs by MTT assay relative to cisplatin IC50; assay type: cell-based; details: CAL-27
[16] = target: T1, Class 1 histone deacetylase; assay: Inhibition of class 1 HDAC in human CAL27 cells assessed as potentiation of cisplatin-induced apoptosis by measuring increase in accumulation at sub-G1 phase at […] preincubated for 48 hrs followed by cisplatin addition and measured after 24 hrs by propidium iodide staining based flow cytometry; assay type: cell-based; details: CAL-27
[17] = target: T1, Class 1 histone deacetylase; assay: Inhibition of class 1 HDAC in human Cal27CisR cells assessed as potentiation of cisplatin-induced apoptosis by measuring increase in accumulation at sub-G1 phase at […] preincubated for 48 hrs followed by cisplatin addition and measured after 24 hrs by propidium iodide staining based flow cytometry; assay type: cell-based
CAL-27 [18] = assay: Induction of apoptosis in human CAL27 cells assessed as caspase-3/7 activation at […] measured after 48 hrs by CellEvent caspase 3/7 green detection reagent/Hoechst 33342 staining based imaging analysis relative to control; assay type: functional
[19] = target: T2, Protein deacetylase HDAC6 (Homo sapiens); assay: Inhibition of HDAC6 in human CAL27 cells assessed as acetylation of alpha-tubulin at […] measured after 24 hrs by immunoblot analysis; assay type: cell-based
[20] = target: T2, Protein deacetylase HDAC6 (Homo sapiens); assay: Inhibition of HDAC6 in human Cal27CisR cells assessed as acetylation of alpha-tubulin at […] measured after 24 hrs by immunoblot analysis; assay type: cell-based

- inhibition [4]: Active
- inhibition [5]: inactive
- inhibition [6]: inactive
Compound: Cc1cc(C)cc(C(=O)N(CCCCCC(=O)Nc2cc(-c3ccccc3)ccc2N)CC(=O)NCc2ccccc2)c1
- CI [1]: 0.1
- CI [2]: 0.1
- CI [3]: 0.05

- IC50 [10]: 1260 nM
- CI [11]: 0.33
- CI [12]: 0.91
- CI [13]: < 0.2
- CI [14]: 0.44
Compound: CN(C)c1ccc(C(=O)N(CC(=O)NCc2ccccc2)Cc2ccc(C(=O)Nc3ccccc3N)cc2)cc1
- Ratio IC50 (CAL-27 [7]): 1.7
- Activity [8]: 6.15%
- Activity [9]: 32.1%

Compound: Cc1cc(C)cc(C(=O)N(CC(=O)NCc2ccccc2)Cc2ccc(C(=O)Nc3cc(-c4ccccc4)ccc3N)cc2)c1
- Ratio IC50 [15]: 5.26
- inhibition [16]: Active
- inhibition [17]: Active
- Activity (CAL-27 [18]): 9.47%
- inhibition [19]: inactive
- inhibition [20]: inactive
